Results as given in patent publication US20260151398A1, “COMPOUNDS FOR REDUCING CHOLESTEROL AND TREATING LIVER AND KIDNEY DISEASE” (McMaster University, priority 2021, published 2026).
“Also recorded” adds a separate entry of the source.

Key:
Assay type in all cases: cell-based, human
GRP78 and SREBP2 = assay: Co-immunoprecipitation of GRP78 with SREBP2 in HuH7 cells; conditions: TG 100 nM, CDN 100 μM, CF 200 μM, 24 h
Protocol: Cells were grown in 10 cm dishes were resuspended in ice cold non-denaturing immunoprecipitation buffer containing 20 mM tris HCL, 137 mM NaCl, 1% NP-40, 2 mM EDTA and protease inhibitor (Roche). Total cell protein was normalized using a protein assay (BioRad) and 1 mg of protein from each sample was incubated with 2 μg of capture antibody targeted against GRP78 (Santa Cruz Biotechnology; SC-1050) and rotated on a platform for 24 h at 4° C. Following incubation, samples were exposed to 100 μl of Protein G magnetic Surebeads® (BioRad) for an additional 2 h on a rotating platform at 4° C. Beads conjugated to the anti-GRP78 antibody were subsequently isolated and the remaining sample was collected and labelled “input” for use as controls. The magnetic beads underwent 4 consecutive washes using the non-denaturing IP buffer and resuspended and boiled in 100 μl of 4× SDS-PAGE sample buffer.
To determine whether increasing ER Ca^2+ levels enhance GRP78 peptide binding capacity, HuH7 cells were treated with either CDN, which increases ER Ca^2+ levels, or TG which causes ER Ca^2+ depletion. Following treatment, the interaction taking place between GRP78 and SREBP2 was examined via immunoprecipitation of the former. By affecting ER Ca^2+ levels however, these agents also directly impact the expression and abundance of GRP78 compared to untreated cells. Therefore, assessment of the relative binding capacity GRP78 for SREBP2 between treatments required normalization of immunoprecipitations to equivalent GRP78 protein levels (FIG. 7 A).

ER Ca^2+ levels = assay: ER Ca2+ in HuH7 cells (D1ER, Mag-Fluo-4, TG-induced efflux); conditions: TG 100 nM, CDN 100 μM, CF 200 μM, 24 h
Protocol: Intracellular Ca^2+ in Huh7 and HepG2 cells was measured using a high-affinity Ca^2+ indicator, Fura-2-AM (Thermofisher Scientific). ER Ca^2+ levels were assessed using the low-affinity Ca^2+ indicator, Mag-Fluo-4, and via transfection of cells with D1ER. The D1ER plasmid encodes an ER-resident calcium binding protein linked to a fluorescent protein and increases in fluorescence intensity upon Ca^2+ binding (7). For assessment using indicators, cells were plated in black clear-bottom 96-well plates to a confluence of 70-75% and treated with Ca^2+ modulating agents for 24 h (n=6). Cells were then washed and incubated with Fura-2-AM (2 μM) or Mag-Fluo-4 (2 μM) for 45 minutes at 37° C. in HBSS containing 20 mM HEPES and 2% pluronic acid v/v (Thermofisher Scientific). Fluorescence intensity of intracellular Fura-2-AM was measured at two distinct wavelengths (ex 340/em 515 and ex 380/em 515), following three consecutive washes, to assess bound and unbound states using a SpectraMax® GeminiEM fluorescent spectrophotometer (Molecular Devices, Sunnyvale, California, USA). Fluorescence intensity of Mag-Fluo-4 was quantified at a single wavelength (ex 495/em 515). […] Twenty-four h later, cells were treated with Ca^2+ modulating agents for an additional 24 h and quantified (ex 495/em 515) using a SpectraMax® GeminiEM fluorescent spectrophotometer.
Among the many intracellular effects of CF on the cell, its ability to increase intracellular Ca^2+ levels is well-studied (Echeverri, D., et al., 2010). […] ER Ca^2+ levels were then examined in cells transfected with D1ER; a genetically-encoded ER-resident fluorescence resonance energy transfer (FRET)-based […] chameleon Ca^2+ sensor, which increases in fluorescence intensity upon Ca^2+ binding (Palmer, A. E., et al., 2004). The low-affinity Ca^2+ indicator, Mag-Fluo-4, was also utilized for the direct assessment of ER Ca^2+ and increases in fluorescence intensity upon Ca^2+ binding (Diercks, B. P., et al., 2017; Lebeau, P., et al., 2021). […] ER Ca^2+ content was also assessed indirectly with the high affinity Ca^2+ dye, fura-2-AM (FIG. 6 B). […]

[1] = test system: ER stress markers (GRP78, ATF4, pPERK, IRE1α, sXBP1, ATF6); assay: ER stress / UPR readouts in hepatocytes
Protocol: Cells were washed in phosphate-buffered saline (PBS), lysed in 4× SDS-PAGE lysis buffer and separated on 7-10% polyacrylamide gels in denaturing conditions. Gels were transferred to nitrocellulose membranes using the BioRad mini trans-blot system, blocked in 5% skim milk in tris-buffered saline (TBS) for 1 h and incubated in primary antibody overnight for 16 h at 4° C. Membranes were then exposed to horse radish peroxidase conjugated secondary antibodies and visualized using EZ-ECL chemiluminescent reagent (Froggabio). Band intensities were quantified using ImageJ software ([…]) against membranes reprobed for housekeeping proteins.
Following treatment, live cells were incubated in complete DMEM containing 5 μM Thioflavin-T (ThT; Thermofisher Scientific) for 15 minutes. Cells were then fixed in 4% paraformaldehyde and mounted with permafluor. Fluorescent staining was visualized using the EVOS FL colour system at either 20 or 40× magnification.
RNA purification/isolation was performed using RNeasy mini kits (Qiagen) and normalized to 2 μg RNA using a NanoDrop® spectrophotometer. Samples were then reverse transcribed into cDNA using Superscript Vilo cDNA Synthesis kit (Thermofisher Scientific). Real-time PCR was executed with Fast SYBR Green (Thermo Fisher Scientific) using the ΔΔct method on the ViiA7 real-time PCR platform (Thermofisher Scientific).
Because ER Ca^2+ depletion induces a compensatory unfolded protein response (UPR), it was also postulated that CF may attenuate UPR marker expression by increasing ER Ca^2+ levels. […] Reactive oxygen species production, a process known to occur during conditions of ER stress, was also attenuated by CF (FIG. 9 H). […] While increasing the protein binding ability of chaperones, such as GRP78, CF also attenuates SREBP2-driven gene expression (FIG. 7 L).

SMILES	interaction of GRP78 with pre-mature SREBP2 (GRP78 and SREBP2)	ER Ca^2+ levels (ER Ca^2+ levels)	TG-induced GRP78 expression ([1]; HuH7, with TG 100 nM)	GRP78 expression ([1]; HuH7, TG 100 nM, CPA 10 μM)	thioflavin-T-stained misfolded protein aggregates and FLAG-sXBP1 expression ([1]; HuH7)	reactive oxygen species production ([1]; HuH7, TG 100 nM)	expression of pPERK, IRE1α, sXBP1, ATF4 and ATF6 ([1]; HuH7, immunoblotting and real-time PCR, listed as CF)	mRNA of ER stress markers GRP78 and ATF4 ([1]; PHH, CF 200 μM)
Cc1ccc2cccc(NC(=O)c3ccc(OC(C)C)cc3)c2n1 [CDN]	enhanced the ability of GRP78 to interact with and sequester pre-mature SREBP2	increased ER Ca^2+ levels	blocked TG-induced expression					
C/C=C(/C)C(=O)O[C@H]1C(C)=C2[C@H]([C@@H]1OC(=O)CCCCCCC)[C@@](C)(OC(C)=O)C[C@H](OC(=O)CCC)[C@@]1(O)[C@H]2OC(=O)[C@@]1(C)O [TG, thapsigargin]	lost its intrinsic ability to interact with pre-mature SREBP2	reduced ER Ca^2+ levels		increased the expression of GRP78				
Cn1c(=O)c2c(ncn2C)n(C)c1=O [caffeine, 1,3,7-Trimethylxanthine]	increases the SREBP2-binding capacity of GRP78	increased ER Ca^2+ levels			blocked the accumulation of thioflavin-T-stained misfolded protein aggregates	attenuated	reduction in the expression of pPERK, IRE1α, sXBP1, ATF4 and ATF6; also recorded: protects against ER stress	reduction in mRNA transcript levels of ER stress markers
